The values below come from US20240034730A1, “PYRAZOLO DERIVATIVES AS HUMAN DIHYDROOROTATE DEHYDROGENASE (HDHODH) INHIBITORS FOR USE AS ANTIVIRALS” (DRUG DISCOVERY AND CLINIC S.R.L., priority 2020, published 2024).

Values after ≈ are worked out from the molar mass of the structure shown. Read-outs that look alike come from different tables or passages of the source.

The EC50 is the concentration needed to bring the measured effect to its halfway point. The IC50 is the concentration that inhibits the measured activity by half. By solubility is commonly meant the dissolved amount per volume that the medium holds. The term melting point denotes the temperature of the solid-liquid transition.

One data set concerns HSV-1. Kind of data set: Plaque reduction assay (PRA), HSV-1 in Vero cells. Format: cell-based, Herpes simplex virus 1. To be noted: Human alphaherpesvirus 1, Vero.
Data set [1] is described as follows: Solubility assay at pH 7.4 in PBS. Format: physicochemical. To be noted: for Solubility in PBS: pH 7.4; for solubility at 24 h: 25 °C, pH 7.4, aqueous buffer, thermodynamic from solid.
Experimental: Solubility assay at pH 7.4. […] The samples were shaken in an orbital shaker at 25° C. for 24 h. These suspensions were filtered through a PTFE 0.45 μm filter (VWR), and the solutions were chromatographically analyzed using a Perkin Elmer Ultra High Performance Liquid Chromatography (UHPLC) instrument, equipped with a reverse-phase (RP) C18 Phenomenex column (2.1×100 mm, 1.7 μm particle size). Gradient elution: the ratio of eluents A and B (0.1% trifluoroacetic acid in water and 0.1% trifluoroacetic acid in acetonitrile, respectively) changed linearly from 60% A-40% B to 0% A-100% B in 12 minutes, followed by 5 minutes in isocratic elution at 100% of eluent B and then 4 minutes in equilibration elution to reset the starting conditions. The flow rate was 0.5 mL/min. Standard injection volumes were either 2 or 4 μl for poorly soluble compounds. The detection system was a Perkin Elmer diode-array-detector. The wavelengths that were monitored for each compound were defined according to the compound's own absorption spectrum. Solubility, expressed as μM concentration of the saturated solution, was calculated via interpolation with external calibration curves that were obtained with solutions of each compound in acetonitrile.
For data set [2] the following is noted: pH 7.4.
Experimental: (§1) Lipophilicity. The shake flask method was chosen to determinate logD7.4.
(§2) The partition coefficients between n-octanol and PBS at pH 7.4 (log D^7.4) were obtained using the shake-flask technique at room temperature. In the shake-flask experiments, 50 mM of phosphate buffered saline pH 7.4 was used as the aqueous phase. The organic (n-octanol) and aqueous phases were mutually saturated by shaking for 4 h. The compounds were solubilized in the buffered aqueous phase at the highest concentration compatible with solubility and appropriate amounts of n-octanol were added. The two phases were shaken for about 20 min, by which time the partitioning equilibrium of solutes had been reached, and then centrifuged (10000 rpm, 10 min).
Another data set has as its target recombinant hDHODH (Homo sapiens (Human), UniProt Q02127). In words: hDHODH inhibition assay (DCIP reduction). Format: biochemical. To be noted: recombinant GST-hDHODH; means ± SE of three independent experiments; read-out: hDHODH IC50 ± SE.
In another data set the test system is hCoV-OC43. In words: Focus forming reduction assay (FFRA), hCoV-OC43 in HCT-8 cells, single concentration. Format: cell-based. To be noted: HCT8 cells, 72 h p.i., vs DMSO control; for inhibition at 0.1 µM: Betacoronavirus 1, OC43, HCT-8, 72 h, read-out: % Decrease of hCoV-OC43 replication in presence of inhibitor 0.1 μM.
Another data set in a line: in vitro. To be noted: African green monkey.
Another data set deals with HSV-2. Kind of data set: Plaque reduction assay (PRA), HSV-2 in Vero cells. Format: cell-based, Herpes simplex virus 2. To be noted: Human alphaherpesvirus 2, Vero, read-out: EC50 HSV-2. In general terms: Plaques are areas of infected cells; plaque reduction assays count them against a control.
Data set [3] can be described thus: log D (pH 7.4), shake-flask n-octanol/PBS. To be noted: n-octanol/PBS pH 7.4, shake flask.
Experimental: as §1, §2

Sequence of recombinant hDHODH (Q02127 whole entry): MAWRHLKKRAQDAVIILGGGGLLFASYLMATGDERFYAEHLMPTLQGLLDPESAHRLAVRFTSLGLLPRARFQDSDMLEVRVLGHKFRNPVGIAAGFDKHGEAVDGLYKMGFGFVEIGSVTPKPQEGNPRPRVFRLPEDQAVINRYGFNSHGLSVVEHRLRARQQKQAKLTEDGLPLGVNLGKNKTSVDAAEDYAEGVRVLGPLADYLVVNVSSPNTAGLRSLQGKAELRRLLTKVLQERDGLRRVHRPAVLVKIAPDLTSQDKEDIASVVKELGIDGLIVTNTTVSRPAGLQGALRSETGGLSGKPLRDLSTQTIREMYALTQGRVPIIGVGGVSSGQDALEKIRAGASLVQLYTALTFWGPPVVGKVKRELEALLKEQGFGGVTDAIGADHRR

For `Nc1nc2c(ncn2COCCO)c(=O)[nH]1` [ACV], the half-maximal effective concentration (EC50) in the data set on HSV-1 (read-out: EC50 anti-HSV of reference drug) amounted to 0.18 µM.
As for `O=C(Nc1c(F)c(F)c(-c2ccccc2)c(F)c1F)c1c(O)nn2c(Cl)cccc12` [Compound 4, 7-Chloro-2-hydroxy-N-(2,3,5,6-tetrafluoro-[1,1′-biphenyl]-4-yl)pyrazolo[1,5-a]pyridine-3-carboxamide], the “Solubility in PBS” value in data set [1] is listed as “<LOD”. Besides, in [2], the “Log D7.4 ± SD” value is 2.81 ± 0.13. For the same compound, the IC50 on recombinant hDHODH was determined as 0.0034 µM.
With `O=C(Nc1c(F)c(F)c(-c2ccccc2)c(F)c1F)c1c(O)nn2c1CCCC2` [Compound 5, 2-Hydroxy-N-(2,3,5,6-tetrafluoro-[1,1′-biphenyl]-4-yl)-4,5,6,7-tetrahydropyrazolo[1,5-a]pyridine-3-carboxamide], the “Solubility in PBS” value in data set [1] was “<LOD”. Also, the inhibition at 0.1 µM in the data set on hCoV-OC43 was determined as 31.3%. In addition, the “Log D7.4 ± SD” value in data set [2] is 2.36 ± 0.02. Also, the half-maximal inhibitory concentration (IC50) at recombinant hDHODH was 0.0058 ± 0.0004 µM.
In turn, `O=C(Nc1c(F)c(F)c(N2CCOCC2)c(F)c1F)c1c(O)nn2ccccc12` [Compound 6, 2-Hydroxy-N-(2,3,5,6-tetrafluoro-4-morpholinophenyl)pyrazolo[1,5-a]pyridine-3-carboxamide] gave a solubility at 24 h in [1] of 438 µM (≈ 180 µg/mL). In addition, in data set [2], the “Log D7.4 ± SD” value turned out to be 0.66 ± 0.08. Besides, the IC50 at recombinant hDHODH worked out at 0.0909 µM.
For `O=C(Nc1c(F)c(F)c(-c2cccnc2)c(F)c1F)c1c(O)nn2ccccc12` [Compound 8, 2-Hydroxy-N-(2,3,5,6-tetrafluoro-4-(pyridin-3-yl)phenyl)pyrazolo[1,5-a]pyridine-3-carboxamide], the “Log D7.4 ± SD” value in data set [2] was determined as 0.98 ± 0.03. On recombinant hDHODH, the IC50 was 0.00623 µM.
For `O=C(Nc1c(F)c(F)c(-c2ccnc(C(F)(F)F)c2)c(F)c1F)c1c(O)nn2ccccc12` [Compound 9, 2-Hydroxy-N-(2,3,5,6-tetrafluoro-4-(2-(trifluoromethyl)pyridin-4-yl)phenyl)pyrazolo[1,5-a]pyridine-3-carboxamide], the inhibition at 0.1 µM in the data set on hCoV-OC43 was > 50%. Besides, the “Log D7.4 ± SD” value in data set [2] turned out to be 1.84 ± 0.06. Also, at recombinant hDHODH, the concentration for half-maximal inhibition (IC50) was 0.15 ± 0.015 µM.
As for `O=C(Nc1c(F)c(F)c(-c2ccc(F)cc2)c(F)c1F)c1c(O)nn2ccccc12` [Compound 10, 2-Hydroxy-N-(2,3,4′,5,6-pentafluoro-[1,1′-biphenyl]-4-yl)pyrazolo[1,5-a]pyridine-3-carboxamide], in [1], the “Solubility in PBS” value is reported as “<LOD”. Further, in data set [2], the “Log D7.4 ± SD” value is given as “Insoluble”. The IC50 at recombinant hDHODH was 0.0177 µM.
The corresponding values for `O=C(Nc1c(F)c(F)c(-c2cccc(F)c2)c(F)c1F)c1c(O)nn2ccccc12` [Compound 11, 2-Hydroxy-N-(2,3,3′,5,6-pentafluoro-[1,1′-biphenyl]-4-yl)pyrazolo[1,5-a]pyridine-3-carboxamide] are “<LOD”, 2.09 ± 0.04 and 0.00203 µM.
For `O=C(Nc1c(F)c(F)c(-c2ccc(C(F)(F)F)cc2)c(F)c1F)c1c(O)nn2ccccc12` [Compound 12, 2-Hydroxy-N-(2,3,5,6-tetrafluoro-4′-(trifluoromethyl)-[1,1′-biphenyl]-4-yl)pyrazolo[1,5-a]pyridine-3-carboxamide], the “Solubility in PBS” value in data set [1] is given as “<LOD”. Also, in data set [2], the “Log D7.4 ± SD” value is on record as “Insoluble”. Moreover, the IC50 at recombinant hDHODH was 0.0718 µM.
The corresponding values for `O=C(Nc1c(F)c(F)c(-c2cccc(C(F)(F)F)c2)c(F)c1F)c1c(O)nn2ccccc12` [Compound 13, 2-Hydroxy-N-(2,3,5,6-tetrafluoro-3′-(trifluoromethyl)-[1,1′-biphenyl]-4-yl)pyrazolo[1,5-a]pyridine-3-carboxamide] are “<LOD”, 2.69 ± 0.03 and 0.00634 ± 0.00063 µM.
In data set [1], `O=C(Nc1c(F)c(F)c(-c2cccc(O)c2)c(F)c1F)c1c(O)nn2ccccc12` [Compound 14, 2-Hydroxy-N-(2,3,5,6-tetrafluoro-3′-hydroxy-[1,1′-biphenyl]-4-yl)pyrazolo[1,5-a]pyridine-3-carboxamide] showed a solubility at 24 h of 55 µM (≈ 23 µg/mL). Further, the “Log D7.4 ± SD” value in [2] came to 1.82 ± 0.09. The half-maximal inhibitory concentration (IC50) on recombinant hDHODH is 0.00278 ± 0.00032 µM.
Turning to `O=C(Nc1c(F)c(F)c(-c2cccc(OC(F)(F)F)c2)c(F)c1F)c1c(O)nn2ccccc12` [Compound 15, 2-Hydroxy-N-(2,3,5,6-tetrafluoro-3′-(trifluoromethoxy)-[1,1′-biphenyl]-4-yl)pyrazolo[1,5-a]pyridine-3-carboxamide], in the data set on hCoV-OC43, the inhibition at 0.1 µM amounted to 93.6%. Further, in data set [2], the “Log D7.4 ± SD” value turned out to be 3.27 ± 0.19. For the same compound, the IC50 at recombinant hDHODH was found to be 0.0023 ± 0.00033 µM.
In the data set “in vitro”, `CCCOc1cccc(-c2c(F)c(F)c(NC(=O)c3c(O)nn4ccccc34)c(F)c2F)c1` [Compound 17, 2-Hydroxy-N-(2,3,5,6-tetrafluoro-3′-propoxy-[1,1′-biphenyl]-4-yl) pyrazolo[1,5-a]pyridine-3-carboxamide] displayed a CC50 at 3 days of 117 µM. The EC50 with HSV-2 worked out at 0.11 µM; in the data set on HSV-1 (read-out: EC50 HSV-1) it was 0.09 µM. In data set [2], the “Log D7.4 ± SD” value was 3.28 ± 0.12.
Turning to `O=C(Nc1ccc2[nH]ccc2c1)c1c(O)nn2ccccc12` [Compound 19, 2-Hydroxy-N-(1H-indol-5-yl)pyrazolo[1,5-a]pyridine-3-carboxamide], the “Log D7.4 ± SD” value in data set [3] is 0.45 ± 0.02. In addition, the IC50 on recombinant hDHODH is > 10 µM.
The compound `O=C(Nc1ccc2c(ccn2-c2ccccc2)c1)c1c(O)nn2ccccc12` [Compound 20, 2-Hydroxy-N-(1-phenyl-1H-indol-5-yl)pyrazolo[1,5-a]pyridine-3-carboxamide] had a melting point of 133.6 to 135.9 °C. The “Log D7.4 ± SD” value in data set [3] came out at 2.89 ± 0.05. Moreover, the IC50 on recombinant hDHODH stood at 2.76 ± 0.386 µM.
For `O=C(Nc1ccc2c(c1)ncn2-c1ccccc1)c1c(O)nn2ccccc12` [Compound 21, 2-Hydroxy-N-(1-phenyl-1H-benzo[d]imidazol-5-yl)pyrazolo[1,5-a]pyridine-3-carboxamide] the same measures were 133.6 to 135.9 °C, 2.55 ± 0.04 and > 10 µM.
The compound `O=C(Nc1ccc2c(c1)nnn2-c1ccccc1)c1c(O)nn2ccccc12` [Compound 22, 2-Hydroxy-N-(1-phenyl-1H-benzo[d][1,2,3]triazol-5-yl)pyrazolo[1,5-a]pyridine-3-carboxamide] displayed a melting point of 133.6 to 135.9 °C. Besides, in [3], the “Log D7.4 ± SD” value stood at 1.59 ± 0.03. Moreover, on recombinant hDHODH, the half-maximal inhibitory concentration (IC50) came out at 7.2 ± 1.6 µM.
For the compound `Oc1nn2ccccc2c1/N=N/c1c(F)c(F)c(-c2ccccc2)c(F)c1F` [Compound 25], the “% Decrease of hCoV-OC43 replication in presence of inhibitor 0.1 μM” value with hCoV-OC43 is 18.70%. For the same compound, the IC50 at recombinant hDHODH turned out to be 0.013 µM.
With `Cc1cc(Sc2ccncc2)c(C)cc1NC(=O)c1c(O)nn2ccccc12` [Compound 26, 2-Hydroxy-N-(2,5-dimethyl-4-(pyridin-4-ylthio)phenyl) pyrazolo[1,5-a]pyridine-3-carboxamide], the “Log D7.4 ± SD” value in data set [3] worked out at 1.76 ± 0.07. In addition, the IC50 on recombinant hDHODH turned out to be 2.21 ± 0.366 µM.
The compound `Cc1cc(NC(=O)c2c(O)nn3ccccc23)c(C(C)C)cc1Oc1ccccc1` [Compound 29, 2-Hydroxy-N-(2-isopropyl-5-methyl-4-phenoxyphenyl)pyrazolo[1,5-a]pyridine-3-carboxamide] registered a solubility at 24 h in [1] of 1.2 ± 0.28 µM (≈ 0.482 µg/mL). In addition, the “Log D7.4 ± SD” value in [3] was found to be 3.18 ± 0.09.
The corresponding values for `Cc1cc(Oc2ccccc2)c(C(C)C)cc1NC(=O)c1c(O)nn2ccccc12` [Compound 30, 2-Hydroxy-N-(5-isopropyl-2-methyl-4-phenoxyphenyl)pyrazolo[1,5-a]pyridine-3-carboxamide] are 0.98 ± 0.23 µM (≈ 0.393 µg/mL) and 2.91 ± 0.07.
The compound `Cc1cc(NC(=O)c2c(O)nn3ccccc23)c(C(C)C)cc1Oc1ccncc1` [Compound 36, 2-Hydroxy-N-(2-isopropyl-5-methyl-4-(pyridin-4-yloxy)phenyl)pyrazolo[1,5-a]pyridine-3-carboxamide] displayed a solubility at 24 h in [1] of 111.1 ± 0.35 µM (≈ 44.7 µg/mL). Further, the “Log D7.4 ± SD” value in [3] is 2.51 ± 0.07.
In data set [1], `Cc1cc(NC(=O)c2c(O)nn3ccccc23)c(C(C)C)cc1Oc1ccc(C(F)(F)F)cc1` [Compound 37, 2-Hydroxy-N-(2-isopropyl-5-methyl-4-(4-(trifluoromethyl)phenoxy)phenyl)pyrazolo[1,5-a]pyridine-3-carboxamide] returned a solubility at 24 h of 1.23 ± 0.09 µM (≈ 0.577 µg/mL). The inhibition at 0.1 µM with hCoV-OC43 worked out at 36.1%.
In the case of `CC(F)(F)COc1cccc(-c2c(F)c(F)c(NC(=O)c3c(O)nn4ccccc34)c(F)c2F)c1` [Compound 40, N-(3′-(2,2-difluoropropoxy)-2,3,5,6-tetrafluoro-[1,1′-biphenyl]-4-yl)-2-hydroxypyrazolo[1,5-a]pyridine-3-carboxamide], the melting point was 229.6 to 231.7 °C. Moreover, the IC50 on recombinant hDHODH amounted to 0.00148 ± 0.0002 µM.
`CC(O)COc1cccc(-c2c(F)c(F)c(NC(=O)c3c(O)nn4ccccc34)c(F)c2F)c1` (stereo not shown) [Compound 43, 2-Hydroxy-N-(2,3,5,6-tetrafluoro-3′-(2-hydroxypropoxy)-[1,1′-biphenyl]-4-yl) pyrazolo[1,5-a]pyridine-3-carboxamide]: at recombinant hDHODH, the IC50 turned out to be 0.0025 ± 0.0002 µM.
